Numbered stars: 1 amine (or outer) side, 2 acyl side, 3 side chain; on linkers, the order of the positions; unused ones are H or OH. Bridge positions count the residues as written; N and C are the ends. Square brackets hold non-standard residues; d marks the D form. Peptide text beside a SMILES is read from it. Hyp = O=C(O)[C@@H]1C[C@@H](O)CN1; tBuAla = CC(C)(C)C[C@H](N)C(=O)O; Suc = O=C(CCC(=O)[*:2])[*:1]; X1 = O=C(CCC[*:2])[*:1]; Dap = NC[C@H](N)C(=O)O; azaGly = NNC(=O)O; Mpa = O=C(O)CCS
Tests used:
[1] = target: T1, Vasopressin V1b receptor (Homo sapiens, UniProt P47901); assay: Agonist activity at human V1b receptor expressed in CHO cells assessed as calcium mobilization measured after 30 mins by Fluo-4-AM dye based FLIPR assay; type: cell-based
T1 sequence (P47901 whole entry): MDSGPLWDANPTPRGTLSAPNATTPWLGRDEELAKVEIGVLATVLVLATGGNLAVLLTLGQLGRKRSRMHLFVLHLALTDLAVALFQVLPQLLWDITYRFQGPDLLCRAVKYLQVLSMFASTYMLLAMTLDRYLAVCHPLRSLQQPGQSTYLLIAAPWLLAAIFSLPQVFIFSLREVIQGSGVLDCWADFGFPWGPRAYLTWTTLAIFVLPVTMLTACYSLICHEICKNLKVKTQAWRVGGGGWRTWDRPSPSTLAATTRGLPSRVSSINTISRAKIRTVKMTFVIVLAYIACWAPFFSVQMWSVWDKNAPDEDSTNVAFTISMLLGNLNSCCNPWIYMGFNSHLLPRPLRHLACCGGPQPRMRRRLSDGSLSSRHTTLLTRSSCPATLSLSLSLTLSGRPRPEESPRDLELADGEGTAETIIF

[2] = target: Vasopressin V1a receptor (Homo sapiens, UniProt P37288); assay: Agonist activity at human V1a receptor expressed in CHO cells assessed as calcium mobilization measured after 30 mins by Fluo-4-AM dye based FLIPR assay; type: cell-based
Vasopressin V1a receptor, sequence (P37288 whole entry): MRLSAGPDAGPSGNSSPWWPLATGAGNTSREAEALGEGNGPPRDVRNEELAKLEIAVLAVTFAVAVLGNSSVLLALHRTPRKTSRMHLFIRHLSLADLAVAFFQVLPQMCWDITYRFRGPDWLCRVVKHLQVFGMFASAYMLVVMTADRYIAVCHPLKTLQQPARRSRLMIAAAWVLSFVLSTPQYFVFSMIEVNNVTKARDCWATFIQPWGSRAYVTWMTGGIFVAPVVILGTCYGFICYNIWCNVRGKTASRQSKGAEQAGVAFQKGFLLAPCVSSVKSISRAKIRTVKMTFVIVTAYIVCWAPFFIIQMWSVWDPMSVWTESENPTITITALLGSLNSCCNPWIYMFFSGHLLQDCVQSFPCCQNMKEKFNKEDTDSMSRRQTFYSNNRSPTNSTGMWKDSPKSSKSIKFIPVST

[3] = organism: Homo sapiens; assay: Selectivity ratio of EC50 for human V1b receptor to EC50 for human OTR
[4] = target: T2, Oxytocin receptor (Homo sapiens, UniProt P30559); assay: Agonist activity at human OTR expressed in CHO cells assessed as calcium mobilization measured after 30 mins by Fluo-4-AM dye based FLIPR assay; type: functional, cell-based
T2 sequence (P30559 whole entry): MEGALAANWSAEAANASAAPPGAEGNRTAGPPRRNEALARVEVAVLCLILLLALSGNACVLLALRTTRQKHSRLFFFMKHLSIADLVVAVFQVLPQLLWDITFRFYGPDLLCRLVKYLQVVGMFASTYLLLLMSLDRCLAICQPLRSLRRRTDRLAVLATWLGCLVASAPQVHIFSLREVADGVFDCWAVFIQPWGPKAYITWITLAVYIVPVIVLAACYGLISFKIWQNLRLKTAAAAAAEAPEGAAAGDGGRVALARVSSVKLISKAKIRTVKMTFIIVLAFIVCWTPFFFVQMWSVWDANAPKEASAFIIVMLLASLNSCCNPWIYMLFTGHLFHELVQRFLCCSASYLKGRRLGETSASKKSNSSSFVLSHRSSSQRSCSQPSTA

[5] = organism: Homo sapiens; assay: Selectivity ratio of EC50 for human V1a receptor to EC50 for human OTR

Row | SMILES | EC50 [1] [nM] | EC50 [2] [nM] | Ratio EC50 [3] | EC50 [4] [nM] | Ratio EC50 [5]
1 | CC[C@H](C)[C@@H]1NC(=O)[C@H](Cc2ccc(O)cc2)NC(=O)CCCSC[C@@H](C(=O)N2C[C@H](O)C[C@H]2C(=O)N[C@@H](CC(C)(C)C)C(=O)NCC(N)=O)NC(=O)[C@H](CC(N)=O)NC(=O)[C@H](CCC(N)=O)NC1=O (YIQNC[Hyp][tBuAla]G-NH2; linker N-5 via X1) | > 100 | > 100 | > 10000 | 0.0072 | > 10000
2 | CC[C@H](C)[C@@H]1NC(=O)[C@H](Cc2ccc(O)cc2)NC(=O)CCC(=O)NC[C@@H](C(=O)N2CCC[C@H]2C(=O)N[C@@H](CC(C)C)C(=O)NCC(N)=O)NC(=O)[C@H](CC(N)=O)NC(=O)[C@H](CCC(N)=O)NC1=O (YIQN[Dap]PLG-NH2; linker N-5 via Suc) | > 100 | > 100 | > 100 | 0.12 | > 100
3 | CC[C@H](C)[C@@H]1NC(=O)[C@H](Cc2ccc(O)cc2)NC(=O)CCC(=O)NC[C@@H](C(=O)N2CCC[C@H]2C(=O)N[C@@H](CC(C)(C)C)C(=O)NCC(N)=O)NC(=O)[C@H](CC(N)=O)NC(=O)[C@H](CCC(N)=O)NC1=O (YIQN[Dap]P[tBuAla]G-NH2; linker N-5 via Suc) | > 100 | > 100 | > 100 | 0.26 | > 100
4 | CC[C@H](C)[C@@H]1NC(=O)[C@H](Cc2ccc(O)cc2)NC(=O)CCC(=O)NC[C@@H](C(=O)N2C[C@H](O)C[C@H]2C(=O)N[C@@H](CC(C)C)C(=O)NCC(N)=O)NC(=O)[C@H](CC(N)=O)NC(=O)[C@H](CCC(N)=O)NC1=O (YIQN[Dap][Hyp]LG-NH2; linker N-5 via Suc) | > 100 | > 100 | > 1000 | 0.013 | > 1000
5 | CC[C@H](C)[C@@H]1NC(=O)[C@H](Cc2ccc(O)cc2)NC(=O)CCC(=O)NC[C@@H](C(=O)N2C[C@H](O)C[C@H]2C(=O)N[C@@H](CC(C)C)C(=O)NNC(N)=O)NC(=O)[C@H](CC(N)=O)NC(=O)[C@H](CCC(N)=O)NC1=O (YIQN[Dap][Hyp]L[azaGly]-NH2; linker N-5 via Suc) | > 100 | > 100 | > 1000 | 0.031 | > 1000
6 | CC[C@H](C)[C@@H]1NC(=O)[C@H](Cc2ccccc2)NC(=O)CCSSC[C@@H](C(=O)N2CCC[C@H]2C(=O)N[C@@H](CC(C)C)C(=O)NCC(N)=O)NC(=O)[C@H](CC(N)=O)NC(=O)[C@H](CCC(N)=O)NC1=O ([Mpa]FIQNCPLG-NH2; disulfide 1-6) | > 100 | > 100 | > 100 | 0.19 | > 100
7 | CC[C@H](C)[C@@H]1NC(=O)[C@H](CC(C)C)NC(=O)CCSSC[C@@H](C(=O)N2CCC[C@H]2C(=O)N[C@@H](CC(C)C)C(=O)NCC(N)=O)NC(=O)[C@H](CC(N)=O)NC(=O)[C@H](CCC(N)=O)NC1=O ([Mpa]LIQNCPLG-NH2; disulfide 1-6) | > 100 | > 100 | > 10 | 3.6 | > 10
8 | CC(C)C[C@H](NC(=O)[C@@H]1CCCN1C(=O)[C@@H]1CSSCCC(=O)N[C@@H](Cc2ccc(O)cc2)C(=O)N[C@@H](C)C(=O)N[C@@H](CCC(N)=O)C(=O)N[C@@H](CC(N)=O)C(=O)N1)C(=O)NCC(N)=O ([Mpa]YAQNCPLG-NH2; disulfide 1-6) | > 100 | > 100 | > 10 | 4.4 | > 10
9 | CC(C)C[C@H](NC(=O)[C@@H]1CCCN1C(=O)[C@@H]1CSSCCC(=O)N[C@@H](Cc2ccc(O)cc2)C(=O)N[C@@H](Cc2ccccc2)C(=O)N[C@@H](CCC(N)=O)C(=O)N[C@@H](CC(N)=O)C(=O)N1)C(=O)NCC(N)=O ([Mpa]YFQNCPLG-NH2; disulfide 1-6) | 0.43 | > 100 | 3.9 | 0.11 | > 100
10 | CC[C@H](C)[C@@H]1NC(=O)[C@H](Cc2ccc(O)cc2)NC(=O)CCSSC[C@@H](C(=O)N2CCC[C@H]2C(=O)N[C@@H](CC(C)C)C(=O)NCC(N)=O)NC(=O)[C@H](CC(N)=O)NC(=O)[C@H](C)NC1=O ([Mpa]YIANCPLG-NH2; disulfide 1-6) | 69 | > 100 | 290 | 0.24 | > 100
11 | CC[C@H](C)[C@@H]1NC(=O)[C@H](Cc2ccc(O)cc2)NC(=O)CCSSC[C@@H](C(=O)N2CCC[C@H]2C(=O)N[C@@H](CC(C)C)C(=O)NCC(N)=O)NC(=O)[C@H](CC(N)=O)NC(=O)[C@H](CCC(=O)O)NC1=O ([Mpa]YIENCPLG-NH2; disulfide 1-6) | > 100 | > 100 | > 10 | 5.1 | > 10
12 | CC[C@H](C)[C@@H]1NC(=O)[C@H](Cc2ccc(O)cc2)NC(=O)CCSSC[C@@H](C(=O)N2CCC[C@H]2C(=O)N[C@@H](CC(C)C)C(=O)NCC(N)=O)NC(=O)[C@H](CC(N)=O)NC(=O)[C@H](Cc2ccccc2)NC1=O ([Mpa]YIFNCPLG-NH2; disulfide 1-6) | > 100 | > 100 | > 4 | 22 | > 4
13 | CC[C@H](C)[C@@H]1NC(=O)[C@H](Cc2ccc(O)cc2)NC(=O)CCSSC[C@@H](C(=O)N2CCC[C@H]2C(=O)N[C@@H](CC(C)C)C(=O)NCC(N)=O)NC(=O)[C@H](CC(N)=O)NC(=O)[C@H](CC(C)C)NC1=O ([Mpa]YILNCPLG-NH2; disulfide 1-6) | 23 | > 100 | 29 | 0.78 | > 100
14 | CC[C@H](C)[C@@H]1NC(=O)[C@H](Cc2ccc(O)cc2)NC(=O)CCSSC[C@@H](C(=O)N2CCC[C@H]2C(=O)N[C@@H](CC(C)C)C(=O)NCC(N)=O)NC(=O)[C@H](C)NC(=O)[C@H](CCC(N)=O)NC1=O ([Mpa]YIQACPLG-NH2; disulfide 1-6) | > 100 | > 100 | > 5 | 17 | > 5
15 | CC[C@H](C)[C@@H]1NC(=O)[C@H](Cc2ccc(O)cc2)NC(=O)CCSSC[C@@H](C(=O)N2CCC[C@H]2C(=O)N[C@@H](CC(C)C)C(=O)NCC(N)=O)NC(=O)[C@H](CCC(=O)O)NC(=O)[C@H](CCC(N)=O)NC1=O ([Mpa]YIQECPLG-NH2; disulfide 1-6) | > 100 | > 100 | > 1 | 89 | > 1
16 | CC[C@H](C)[C@@H]1NC(=O)[C@H](Cc2ccc(O)cc2)NC(=O)CCSSC[C@@H](C(=O)N[C@@H](C)C(=O)N[C@@H](CC(C)C)C(=O)NCC(N)=O)NC(=O)[C@H](CC(N)=O)NC(=O)[C@H](CCC(N)=O)NC1=O ([Mpa]YIQNCALG-NH2; disulfide 1-6) | > 100 | > 100 | > 1000 | 0.07 | > 1000
17 | CC[C@H](C)[C@@H]1NC(=O)[C@H](Cc2ccc(O)cc2)NC(=O)CCSSC[C@@H](C(=O)N[C@@H](CCC(=O)O)C(=O)N[C@@H](CC(C)C)C(=O)NCC(N)=O)NC(=O)[C@H](CC(N)=O)NC(=O)[C@H](CCC(N)=O)NC1=O ([Mpa]YIQNCELG-NH2; disulfide 1-6) | > 100 | > 100 | > 100 | 0.35 | > 100
18 | CC[C@H](C)[C@@H]1NC(=O)[C@H](Cc2ccc(O)cc2)NC(=O)CCSSC[C@@H](C(=O)N[C@@H](Cc2ccccc2)C(=O)N[C@@H](CC(C)C)C(=O)NCC(N)=O)NC(=O)[C@H](CC(N)=O)NC(=O)[C@H](CCC(N)=O)NC1=O ([Mpa]YIQNCFLG-NH2; disulfide 1-6) | > 100 | > 100 | > 100 | 0.12 | > 100
19 | CC[C@H](C)[C@@H]1NC(=O)[C@H](Cc2ccc(O)cc2)NC(=O)CCSSC[C@@H](C(=O)NCC(=O)N[C@@H](CC(C)C)C(=O)NCC(N)=O)NC(=O)[C@H](CC(N)=O)NC(=O)[C@H](CCC(N)=O)NC1=O ([Mpa]YIQNCGLG-NH2; disulfide 1-6) | > 100 | > 100 | > 1000 | 0.013 | > 1000
20 | CC[C@H](C)[C@@H]1NC(=O)[C@H](Cc2ccc(O)cc2)NC(=O)CCSSC[C@@H](C(=O)N[C@@H](CC(C)C)C(=O)N[C@@H](CC(C)C)C(=O)NCC(N)=O)NC(=O)[C@H](CC(N)=O)NC(=O)[C@H](CCC(N)=O)NC1=O ([Mpa]YIQNCLLG-NH2; disulfide 1-6) | > 100 | > 100 | > 10 | 3.4 | > 10

From ChEMBL document CHEMBL4017483, “Potent and selective oxytocin receptor agonists without disulfide bridges” (Bioorg Med Chem Lett, 2017)
